In article PMC9937012 (Journal of Enzyme Inhibition and Medicinal Chemistry, 2023) one finds inhibition, IC50 and Ki data, which are given here for 24 compounds.

The structures appear in SMILES notation.

In one test the target is human H1R (Homo sapiens, UniProt P35367). Put plainly: Human H1R radioligand displacement assay. It is filed as binding. Conditions: for inhibition at 10 µM: read-out: hH1R Inhibition at 10 µM [%] ±SD (n); for inhibition at 1 µM: read-out: hH1R Inhibition at 1 µM [%] (n). A general note: Loss of bound radioactivity is the signal in a displacement assay; it reports binding, not function.
human H1R, sequence (P35367 whole entry): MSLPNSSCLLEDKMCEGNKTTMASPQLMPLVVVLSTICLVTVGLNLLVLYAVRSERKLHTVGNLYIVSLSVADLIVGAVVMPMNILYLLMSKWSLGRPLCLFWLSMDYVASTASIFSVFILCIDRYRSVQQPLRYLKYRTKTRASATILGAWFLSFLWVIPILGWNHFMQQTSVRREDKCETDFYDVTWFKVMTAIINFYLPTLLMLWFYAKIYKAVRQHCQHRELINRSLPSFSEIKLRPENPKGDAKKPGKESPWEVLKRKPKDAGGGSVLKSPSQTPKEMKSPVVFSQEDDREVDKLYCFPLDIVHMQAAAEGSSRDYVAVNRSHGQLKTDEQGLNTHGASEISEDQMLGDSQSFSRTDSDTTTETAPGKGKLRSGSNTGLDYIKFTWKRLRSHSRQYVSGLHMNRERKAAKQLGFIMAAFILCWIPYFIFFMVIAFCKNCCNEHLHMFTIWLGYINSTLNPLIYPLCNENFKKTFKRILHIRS

Another test deals with human AChE (Homo sapiens, UniProt P22303). The test is described as follows: Inhibition of AChE. Conditions: for inhibition at 10 µM: read-out: AChE Inhibition at 10 µM [%]. It is filed as biochemical.
human AChE, sequence (P22303 32-614): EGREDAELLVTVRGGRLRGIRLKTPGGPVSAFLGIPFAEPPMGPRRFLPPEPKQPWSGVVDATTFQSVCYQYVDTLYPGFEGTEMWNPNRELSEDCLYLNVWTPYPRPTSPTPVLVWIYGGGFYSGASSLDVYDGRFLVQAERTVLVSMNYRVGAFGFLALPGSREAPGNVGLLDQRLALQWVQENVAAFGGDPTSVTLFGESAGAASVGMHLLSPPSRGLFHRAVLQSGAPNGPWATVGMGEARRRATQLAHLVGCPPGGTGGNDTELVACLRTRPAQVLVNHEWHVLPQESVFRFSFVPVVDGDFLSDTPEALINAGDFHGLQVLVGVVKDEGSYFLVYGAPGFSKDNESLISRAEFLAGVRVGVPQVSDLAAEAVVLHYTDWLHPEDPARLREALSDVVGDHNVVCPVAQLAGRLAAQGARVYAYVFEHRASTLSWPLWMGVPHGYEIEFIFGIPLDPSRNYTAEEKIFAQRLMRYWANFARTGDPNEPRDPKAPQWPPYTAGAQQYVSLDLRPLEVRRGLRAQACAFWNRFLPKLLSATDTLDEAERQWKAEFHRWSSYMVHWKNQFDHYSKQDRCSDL
The next test concerns the target human H4R (Homo sapiens, UniProt Q9H3N8). The test is described as follows: Human H4R radioligand displacement assay. Conditions: read-out: hH4R Inhibition at 10 µM [%] (n).
For another test, the target named is human H3R (Homo sapiens, UniProt Q9Y5N1). The test is described as follows: Human H3R radioligand displacement assay. Conditions: for inhibition at 1 µM: read-out: hH3R Inhibition at 1 µM [%] ±SD (n).
human H3R, sequence (Q9Y5N1 whole entry): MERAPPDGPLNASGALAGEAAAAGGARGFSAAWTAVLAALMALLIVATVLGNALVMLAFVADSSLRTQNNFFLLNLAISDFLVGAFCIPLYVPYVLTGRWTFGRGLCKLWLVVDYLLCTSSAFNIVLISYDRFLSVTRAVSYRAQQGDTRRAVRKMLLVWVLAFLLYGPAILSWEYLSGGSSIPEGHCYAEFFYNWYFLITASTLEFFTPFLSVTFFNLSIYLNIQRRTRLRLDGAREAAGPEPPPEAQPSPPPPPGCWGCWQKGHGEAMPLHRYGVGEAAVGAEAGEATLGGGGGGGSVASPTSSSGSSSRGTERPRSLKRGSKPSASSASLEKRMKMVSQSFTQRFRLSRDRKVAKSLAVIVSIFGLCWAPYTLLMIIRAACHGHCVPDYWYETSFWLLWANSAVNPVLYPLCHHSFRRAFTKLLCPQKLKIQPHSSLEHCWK

human H4R, sequence (Q9H3N8 whole entry): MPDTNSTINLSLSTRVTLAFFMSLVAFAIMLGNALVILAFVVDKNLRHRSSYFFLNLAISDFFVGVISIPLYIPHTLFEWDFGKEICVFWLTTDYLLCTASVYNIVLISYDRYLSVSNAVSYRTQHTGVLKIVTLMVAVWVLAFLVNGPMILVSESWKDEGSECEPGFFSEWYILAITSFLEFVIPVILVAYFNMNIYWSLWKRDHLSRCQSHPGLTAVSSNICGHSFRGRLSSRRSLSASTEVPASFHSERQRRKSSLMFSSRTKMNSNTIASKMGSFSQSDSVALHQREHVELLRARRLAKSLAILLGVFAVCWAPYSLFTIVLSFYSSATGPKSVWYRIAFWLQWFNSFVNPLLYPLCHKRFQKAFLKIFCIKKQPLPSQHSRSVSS

In general, inhibition refers to the relative decrease from the control value, in per cent. The term IC50 denotes the midpoint of a concentration-inhibition curve. A high value points to weaker potency in that assay. For `CCOC(=O)c1nc2ccc(OCCN3CCCCC3)cc2s1` [Compound 1b, Ethyl 6-(2-(piperidin-1-yl)ethoxy)benzo[d]thiazole-2-carboxylate], the inhibition at 10 µM on human H1R is below 0%; at human AChE, 9.25 ± 7.88%; at human H4R, 61.7 ± 35.4%. This compound registered a half-maximal inhibitory concentration (IC50) at human AChE above 10 µM. The inhibition at 1 µM at human H3R came out at 35.2 ± 14.4%.
In the same order, the values of `O=C(NC1CCCCCC1)c1nc2ccc(OCCCCCNC3CCCCCC3)cc2s1` [Compound 3p, N-Cycloheptyl-6-((5-(cycloheptylamino)pentyl)oxy)benzo[d]thiazole-2-carboxamide] are 17.5 ± 8.4%, 9.5 ± 3.58%, 58.4 ± 8.3%, above 10 µM and 34 ± 7.5%.
In the same order, the values of `O=C(NC1CCCC1)c1nc2ccc(OCCCNC3CCCC3)cc2s1` [Compound 3i, N-Cyclopentyl-6-(3-(cyclopentylamino)propoxy)benzo[d]thiazole-2-carboxamide] are 35.5 ± 9.8%, 59 ± 6.16%, 50.5 ± 13%, 7.31 ± 1.59 µM and 51.2 ± 8.7%.
What is called Ki is a measure of affinity in units of concentration, obtained from inhibition or displacement. A high value points to weaker binding. On to `O=C(NCC1CCCCC1)c1nc2ccc(OCCCCCNCC3CCCCC3)cc2s1` [Compound 3q, N-(Cyclohexylmethyl)-6-((5-((cyclohexylmethyl)amino)pentyl)oxy)benzo[d]thiazole-2-carboxamide], for which the inhibition at 10 µM on human H1R is 40.6 ± 8.2%; at human AChE, 22.2 ± 5.5%; on human H4R, 49.1 ± 22.8%. The compound further gave an IC50 against human AChE above 10 µM. Further, the Ki at human H3R was above 3 µM.
For `COC(=O)c1nc2ccc(OCCN3CCOCC3)cc2s1` [Compound 1d, Methyl 6-(2-morpholinoethoxy)benzo[d]thiazole-2-carboxylate], the inhibition at 10 µM at human H1R was determined as 11.2 ± 10.5%; at human AChE, 5.52 ± 6.39%; at human H4R, 51.3 ± 18.2%. The compound further registered a concentration for half-maximal inhibition (IC50) against human AChE above 10 µM. Moreover, at human H3R, the inhibition at 1 µM worked out at 25.3 ± 5.4%.
In the same order, the values of `O=C(NCC1CCCCC1)c1nc2ccc(OCCNCC3CCCCC3)cc2s1` [Compound 3c, N-(Cyclohexylmethyl)-6-(2-((cyclohexylmethyl)amino)ethoxy)benzo[d]thiazole-2-carboxamide] are 5.3 ± 14.2%, below 0%, 52.8 ± 11.8%, above 10 µM and 31.5 ± 11.4%.
In the case of `CCN1CCN(CCCOc2ccc3nc(C(=O)N4CCN(CC)CC4)sc3c2)CC1` [Compound 4f, (4-Ethylpiperazin-1-yl)(6-(3-(4-ethylpiperazin-1-yl)propoxy)benzo[d]thiazol-2-yl)methanone], on human H1R, the inhibition at 1 µM worked out at 3 ± 36%. At human AChE, the IC50 is above 10 µM and the inhibition at 10 µM came to 8.2 ± 1.64%. The same compound had a Ki at human H3R of 0.43 µM.
With `O=C(NC1CC1)c1nc2ccc(OCCCNC3CC3)cc2s1` [Compound 3g, N-Cyclopropyl-6-(3-(cyclopropylamino)propoxy)benzo[d]thiazole-2-carboxamide], the inhibition at 10 µM is 13.6 ± 10.7% on human H1R, 15.4 ± 11.2% on human AChE and 30.2 ± 14.3% at human H4R. This compound also yielded an IC50 against human AChE above 10 µM. Besides, the inhibition at 1 µM on human H3R was found to be 27.7 ± 12.8%.
Consider `O=C(NCc1ccccc1)c1nc2ccc(OCCCNCc3ccccc3)cc2s1` [Compound 4j, N-Benzyl-6-(3-(benzylamino)propoxy)benzo[d]thiazole-2-carboxamide], for which the inhibition at 1 µM at human H1R was 27 ± 39.4%. Also, at human AChE, the IC50 is above 10 µM and the inhibition at 10 µM amounted to 20.3 ± 3.55%. Also, the Ki on human H3R stood at 0.64 µM.
As to `O=C(NC1CC1)c1nc2ccc(OCCCCCNC3CC3)cc2s1` [Compound 3r, N-Cyclopropyl-6-((5-(cyclopropylamino)pentyl)oxy)benzo[d]thiazole-2-carboxamide], the inhibition at 10 µM at human H1R was 23.7 ± 12.7%; on human AChE, 14.8 ± 6.73%; at human H4R it was 51.6 ± 15.8%. On human AChE, this compound returned an IC50 above 10 µM. Besides, the inhibition at 1 µM at human H3R is 38.8 ± 9.7%.
In the same order, the values of `CCOC(=O)c1nc2ccc(OCCN3CCOCC3)cc2s1` [Compound 1a, Ethyl 6-(2-morpholinoethoxy)benzo[d]thiazole-2-carboxylate] are below 0%, 7.64 ± 7.33%, 39.2 ± 34.7%, above 10 µM and 63.3 ± 4.2%.
On to `CN1CCN(CCCOc2ccc3nc(C(=O)N4CCN(C)CC4)sc3c2)CC1` [Compound 4g, (4-Methylpiperazin-1-yl)(6-(3-(4-methylpiperazin-1-yl)propoxy)benzo[d]thiazol-2-yl)methanone], for which the inhibition at 1 µM at human H1R was found to be 4.8 ± 37.7%. For the same compound, on human AChE, the half-maximal inhibitory concentration (IC50) is above 10 µM and the inhibition at 10 µM came to 7.7 ± 1.87%. At human H3R, this compound gave a Ki above 1 µM.
In the same order, the values of `CC1CC(C)CN(CCCOc2ccc3nc(C(=O)N4CC(C)CC(C)C4)sc3c2)C1` (centres unmarked) [Compound 4c, (3,5-Dimethylpiperidin-1-yl)(6-(3-(3,5-dimethylpiperidin-1-yl)propoxy)benzo[d]thiazol-2-yl)methanone] are 26.8 ± 31%, above 10 µM, 6.9 ± 1.67% and 0.34 µM.
As to `O=C(NC1CCCCCC1)c1nc2ccc(OCCCNC3CCCCCC3)cc2s1` [Compound 3e, N-Cycloheptyl-6-(3-(cycloheptylamino)propoxy)benzo[d]thiazole-2-carboxamide], the inhibition at 10 µM at human H1R came to 12.1 ± 18.3%; on human AChE, 7.3 ± 2.31%; at human H4R, 53.5 ± 15.2%. On human AChE, this compound returned an IC50 above 10 µM. For the same compound, at human H3R, the inhibition at 1 µM amounted to 35.7 ± 11.5%.
Regarding `O=C(c1nc2ccc(OCCCN3CCN(CCO)CC3)cc2s1)N1CCN(CCO)CC1` [Compound 4i, (4-(2-Hydroxyethyl)piperazin-1-yl)(6-(3-(4-(2-hydroxyethyl)piperazin-1-yl)propoxy)benzo[d]thiazol-2-yl)methanone], at human H1R, the inhibition at 1 µM was 22.5 ± 27.4%. At human AChE, the 50% inhibitory concentration (IC50) is above 10 µM and the inhibition at 10 µM came out at 7.3 ± 2.77%. Moreover, the affinity at human H3R corresponds to a Ki of 0.12 µM.
With `CCOC(=O)c1nc2ccc(OCCN3CCCC3)cc2s1` [Compound 1c, Ethyl 6-(2-(pyrrolidin-1-yl)ethoxy)benzo[d]thiazole-2-carboxylate], the inhibition at 10 µM on human H1R was 1 ± 9.7%; on human AChE, 57.2 ± 5.41%; on human H4R, 54 ± 12.1%. In addition, the half-maximal inhibitory concentration (IC50) against human AChE is 7.63 ± 1.6 µM. Also, the inhibition at 1 µM on human H3R was found to be 50.2 ± 10.9%.
`O=C(NCCc1ccccc1)c1nc2ccc(OCCCNCCc3ccccc3)cc2s1` [Compound 4d, N-Phenethyl-6-(3-(phenethylamino)propoxy)benzo[d]thiazole-2-carboxamide]: on human H1R, the inhibition at 1 µM was determined as 10.9 ± 37.1%. At human AChE, the IC50 is above 10 µM and the inhibition at 10 µM is 5.2 ± 2.36%. This compound also returned a Ki at human H3R above 1 µM.
In the same order, the values of `CC1CN(CCCOc2ccc3nc(C(=O)N4CCNC(C)C4)sc3c2)CCN1` (centres unmarked) [Compound 4h, (3-Methylpiperazin-1-yl)(6-(3-(3-methylpiperazin-1-yl)propoxy)benzo[d]thiazol-2-yl)methanone] are 18.4 ± 27%, above 10 µM, 8.3 ± 1.02% and 0.47 µM.
Take `O=C(NCC1CCCCC1)c1nc2ccc(OCCCNCC3CCCCC3)cc2s1` [Compound 3f, N-(Cyclohexylmethyl)-6-(3-((cyclohexylmethyl)amino)propoxy)benzo[d]thiazole-2-carboxamide]: the inhibition at 10 µM was found to be 47.6 ± 12.9% at human H1R, 3.2 ± 3.69% at human AChE and 60.8 ± 30.4% on human H4R. The compound further gave an IC50 on human AChE above 10 µM. In addition, the inhibition at 1 µM at human H3R worked out at 46.3 ± 14.7%.
Turning to `CC1CCN(CCCOc2ccc3nc(C(=O)N4CCC(C)CC4)sc3c2)CC1` [Compound 4l, (4-Methylpiperidin-1-yl)(6-(3-(4-methylpiperidin-1-yl)propoxy)benzo[d]thiazol-2-yl)methanone], the inhibition at 1 µM at human H1R worked out at 26.8 ± 26.3%. Also, on human AChE, the IC50 was above 10 µM and the inhibition at 10 µM turned out to be 8.4 ± 0.51%. On human H3R, this compound showed an inhibition constant Ki of 0.43 µM.
For the compound `O=C(c1nc2ccc(OCCN3CCCCC3)cc2s1)N1CCCCC1` [Compound 3a, Piperidin-1-yl-(6-(2-(piperidin-1-yl)ethoxy)benzo[d]thiazol-2-yl)methanone], at human H1R, the inhibition at 10 µM is below 0%. Also, on human AChE, the IC50 is above 10 µM and the inhibition at 10 µM turned out to be 35.5 ± 13.4%. Also, the inhibition at 10 µM on human H4R came out at 30.3 ± 24.9%. In addition, at human H3R, the inhibition constant Ki was above 1 µM and the inhibition at 1 µM stood at 68 ± 9.1%.
As to `CC(=O)N1CCN(CCCOc2ccc3nc(C(=O)N4CCN(C(C)=O)C(C)C4)sc3c2)CC1C` (centres unmarked) [Compound 4m, 1-(4-(6-(3-(4-Acetyl-3-methylpiperazin-1-yl)propoxy)benzo[d]thiazole-2-carbonyl)-2-methylpiperazin-1-yl)ethan-1-one], at human H1R, the inhibition at 1 µM turned out to be 27 ± 27.6%. Also, on human AChE, the half-inhibitory concentration (IC50) is above 10 µM and the inhibition at 10 µM amounted to 2.4 ± 2.06%. This compound also displayed a Ki at human H3R of 0.4 µM.
For `COC(=O)c1nc2ccc(OCCN3CCCCC3)cc2s1` [Compound 1e, Methyl 6-(2-(piperidin-1-yl)ethoxy)benzo[d]thiazole-2-carboxylate], the inhibition at 10 µM at human H1R is 16.3 ± 41.7%; at human AChE, 84 ± 4.25%. Besides, the 50% inhibitory concentration (IC50) against human AChE came to 2.92 ± 0.37 µM. Further, the inhibition at 1 µM at human H3R stood at 54.2 ± 28.4%.
As to `O=C(c1nc2ccc(OCCCN3CCc4ccccc4C3)cc2s1)N1CCc2ccccc2C1` [Compound 4e, (3,4-Dihydroisoquinolin-2(1H)-yl)(6-(3-(3,4-dihydroisoquinolin-2(1H)-yl)propoxy)benzo[d]thiazol-2-yl)methanone], the inhibition at 1 µM at human H1R stood at 9.7 ± 23%. Moreover, at human AChE, the half-maximal inhibitory concentration (IC50) was above 10 µM and the inhibition at 10 µM amounted to 6.2 ± 3.15%. Further, on human H3R, the affinity corresponds to a Ki of 0.34 µM.
